Measurements as given in patent publication US20250129050A1, “SYNTHESIS OF A KIF18A INHIBITOR” (Amgen Inc., priority 2022, published 2025).
“Also recorded” adds a separate entry of the source.

Test: Dynamic Vapor Sorption (DVS) moisture sorption with pre and post DVS XRPD
Format: physicochemical
Conditions: after exposure to 80% relative humidity at 25° C. for 24 hours; hydrate
Experimental: Moisture sorption data were collected using a DVS Endeavour. A sample size of about 30 mg was used. The temperature was 25° C. The relative humidity (RH) was held to 80% for 24 hours. Mass was recorded at the beginning and end of the experiment. Stability and Hygroscopicity Features of Crystalline Compound 6a-I as shown by Pre and Post DVS XRPD Experiment: Crystalline Compound 6a-I was exposed to 80% relative humidity at 25° C. for 24 hours using a DVS Endeavor instrument. The mass was recorded at the beginning and end of the exposure. […] Dynamic Vapor Sorption (DVS): The crystalline Compound 6a-I can be characterized by a DVS moisture sorption profile.

For `O=S(CCOCc1ccccc1)[O][Ca][O]S(=O)CCOCc1ccccc1` (stereo not shown) [Compound 6a-I, calcium 2-(benzyloxy)ethane-1-sulfinate 4/3 hydrate], the “crystalline form stability (XRPD pre DVS vs post DVS)” value was “no crystalline form change; also recorded: stable crystalline polymorph form”.
